From patent US20240041042A1, “1-(PYRIDYL)-5-AZINYLPYRAZOLE DERIVATIVES, AND THEIR USE FOR CONTROL OF UNDESIRED PLANT GROWTH” (Bayer Aktiengesellschaft, priority 2020, published 2024)
Where two headings read alike, the source gives them in different places.

What was measured:
Assay type in all cases: in vivo
[1] = tested on: Digitaria sanguinalis (DIGSA); experiment: Post-emergence herbicidal action against DIGSA; settings: visual rating about 3 weeks after treatment
Method in brief: (§1)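 Rates were 320 g/ha or below, applied as aqueous WP/EC spray with 0.5% additive (600 l/ha) onto one-leaf-stage plants. About 3 weeks later in the greenhouse, damage was scored visually against untreated plants on a 0–100% scale, where 100% means plants died.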

[2] = tested on: Abutilon theophrasti (ABUTH); experiment: Post-emergence herbicidal action against ABUTH; settings: visual rating about 3 weeks after treatment vs untreated controls (100% = plants have died, 0% = like control plants)
Method in brief: as §1

Oryza sativa (ORYSA) = settings: crop plant compatibility
Method in brief: (§2)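 Effects were read visually as % versus untreated controls (0% = no effect, 100% = death) about 3 weeks post-treatment. Application was a post-emergence spray at the one-leaf stage of WP/EC formulations with 0.5% additive at 600 l/ha. Different dosages are denoted a, b and c.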

[3] = tested on: Polygonum convolvulus (POLCO); experiment: Post-emergence herbicidal action against POLCO
Method in brief: as §1

Viola tricolor (VIOTR) = experiment: Post-emergence herbicidal action against VIOTR
Method in brief: as §1

[4] = tested on: Verconica persica (VERPE); experiment: Post-emergence herbicidal action against VERPE
Method in brief: as §1

Avena fatua (AVEFA) = experiment: Post-emergence herbicidal action against AVEFA; settings: visual rating about 3 weeks after treatment
Method in brief: as §1

[5] = tested on: Echinochloa crus-galli (ECHCG); experiment: Post-emergence herbicidal action against ECHCG
Method in brief: as §1

[6] = tested on: Pharbitis purpurea (PHBPU); experiment: Post-emergence herbicidal action against PHBPU
Method in brief: as §1

Setaria viridis (SETVI) = experiment: Post-emergence herbicidal action against SETVI
Method in brief: as §1

[7] = tested on: Matricaria inodora (MATIN); experiment: Post-emergence herbicidal action against MATIN
Method in brief: as §1

Lolium rigidum (LOLRI) = experiment: Post-emergence herbicidal action against LOLRI
Method in brief: as §1

[8] = tested on: Alopecurus myosuroides (ALOMY); experiment: Post-emergence herbicidal action against ALOMY; settings: visual rating about 3 weeks after treatment vs untreated controls (100% = plants have died, 0% = like control plants)
Method in brief: as §1

[9] = tested on: Amaranthus retroflexus (AMARE); experiment: Post-emergence herbicidal action against AMARE
Method in brief: as §1

Zea mays (ZEAMX) = settings: for Post-emergence action against ZEAMX in % (crop plant compatibility): 20 g/ha, effect in comparison to untreated controls; for Post-emergence action against ZEAMX in %: crop plant compatibility, 80 g/ha, effect vs untreated controls
Method in brief: as §2

[10] = 20 g/ha, effect vs untreated controls
[11] = 80 g/ha, visual rating about 3 weeks after treatment vs untreated controls (100% = plants have died, 0% = like control plants)
[12] = 320 g/ha, visual rating about 3 weeks after treatment
[13] = 80 g/ha, effect in comparison to untreated controls

SMILES | Post-emergence action against DIGSA in % ([1]; 320 g/ha) | Post-emergence action against ABUTH in % ([2]; 320 g/ha) | Post-emergence action against ORYSA in % (Oryza sativa (ORYSA); [10]) | Post-emergence action against POLCO in % ([3]; dosage 320 g/ha) | Post-emergence action against VIOTR in % (Viola tricolor (VIOTR); 80 g/ha) | Post-emergence action against VIOTR in % (Viola tricolor (VIOTR); 320 g/ha) | Post-emergence action against VERPE in % ([4]; 320 g/ha, VERPE) | Post-emergence action against VERPE in % ([4]; dosage 80 g/ha) | Post-emergence action against AVEFA in % (Avena fatua (AVEFA); 320 g/ha) | Post-emergence action against ECHCG in % ([5]; dosage 320 g/ha) | Post-emergence action against PHBPU in % ([6]; dosage 80 g/ha) | Post-emergence action against PHBPU in % ([6]; dosage 320 g/ha) | Post-emergence action against SETVI in % (Setaria viridis (SETVI); dosage 80 g/ha) | Post-emergence action against SETVI in % (Setaria viridis (SETVI); dosage 320 g/ha) | Post-emergence action against MATIN in % ([7]; dosage 320 g/ha) | Post-emergence action against LOLRI in % (Lolium rigidum (LOLRI); dosage 80 g/ha) | Post-emergence action against LOLRI in % (Lolium rigidum (LOLRI); dosage 320 g/ha) | Post-emergence action against ALOMY in % ([8]; 80 g/ha) | Post-emergence action against ALOMY in % ([8]; 320 g/ha) | Post-emergence action against AMARE in % [9, 12] | other results
CCOC(=O)[C@@H](C)Oc1nn(-c2ncccc2F)c(-c2cncc(F)c2)c1Br [Example I-227] | 90% | 90% | 0% | 90% | 90% | 90% | 90% | 90% | 90% | 100% | 90% | 100% | 90% | 90% | 90% | 80% | 90% | 80% | 90% | 90% | Post-emergence action against DIGSA in % ([1]; 80 g/ha): 80%; Post-emergence action against ABUTH in % ([2]; 80 g/ha): 90%; Post-emergence action against POLCO in % ([3]; dosage 80 g/ha): 90%; Post-emergence action against AVEFA in % (Avena fatua (AVEFA); 80 g/ha): 90%; Post-emergence action against ECHCG in % ([5]; dosage 80 g/ha): 90%; Post-emergence action against MATIN in % ([7]; dosage 80 g/ha): 80%; Post-emergence action against AMARE in % [9, 11]: 90%
O=C(COc1nn(-c2ncccc2F)c(-c2ccc(F)nc2)c1C1CC1)OCC1CCCO1 (stereo not drawn) [Example I-274] | 90% | 80% | 0% | 80% | 80% | 90% | 90% | 90% | 90% | 90% |  | 80% | 90% | 90% | 90% | 80% | 90% |  | 90% | 90% | Post-emergence action against ZEAMX in % (crop plant compatibility) (Zea mays (ZEAMX)): 10%; Post-emergence action against ZEAMX in % (Zea mays (ZEAMX)): 20%; Post-emergence action against ECHCG in % ([5]; dosage 80 g/ha): 80%
COC(=O)[C@H](C)COC(=O)[C@@H](C)Oc1nn(-c2ccccn2)c(-c2ccc(F)nc2)c1Cl [Example I-275] | 90% | 80% |  | 80% | 90% | 90% | 90% | 90% | 90% | 90% | 90% | 100% | 90% | 90% | 90% | 90% | 90% | 80% | 100% | 80% | Post-emergence action against ABUTH in % ([2]; 80 g/ha): 80%; Post-emergence action against ZEAMX in % (crop plant compatibility) (Zea mays (ZEAMX)): 0%; Post-emergence action against ZEAMX in % (Zea mays (ZEAMX)): 20%; Post-emergence action against POLCO in % ([3]; dosage 80 g/ha): 80%; Post-emergence action against AVEFA in % (Avena fatua (AVEFA); 80 g/ha): 90%; Post-emergence action against MATIN in % ([7]; dosage 80 g/ha): 80%
COC(=O)C(C)COC(=O)C(C)Oc1nn(-c2ccccn2)c(-c2ccc(F)nc2)c1Br (stereo not drawn) [Example I-285] | 90% | 80% | 10% | 80% | 80% | 80% | 80% | 80% | 80% | 80% | 80% | 90% | 90% | 90% | 80% | 80% | 90% | 90% | 90% |  | Post-emergence action against DIGSA in % ([1]; 80 g/ha): 80%; Post-emergence action against ZEAMX in % (crop plant compatibility) (Zea mays (ZEAMX)): 10%; Post-emergence action against ORYSA in % (Oryza sativa (ORYSA); [13]): 10%
COCCOC(=O)COc1nn(-c2ncccc2F)c(-c2ccc(F)nc2)c1C1CC1 [Example I-314] | 90% | 80% | 0% | 90% | 90% | 90% | 90% | 90% | 90% | 90% | 90% | 90% | 90% | 90% | 80% | 90% | 90% | 90% | 90% | 90% | Post-emergence action against DIGSA in % ([1]; 80 g/ha): 90%; Post-emergence action against ABUTH in % ([2]; 80 g/ha): 80%; Post-emergence action against ZEAMX in % (crop plant compatibility) (Zea mays (ZEAMX)): 0%; Post-emergence action against ZEAMX in % (Zea mays (ZEAMX)): 10%; Post-emergence action against ORYSA in % (Oryza sativa (ORYSA); [13]): 20%; Post-emergence action against AVEFA in % (Avena fatua (AVEFA); 80 g/ha): 90%; Post-emergence action against ECHCG in % ([5]; dosage 80 g/ha): 90%; Post-emergence action against AMARE in % [9, 11]: 90%
O=C(COc1nn(-c2ncccc2F)c(-c2ccc(F)nc2)c1C1CC1)OCC1CC1 [Example I-318] | 90% | 80% | 0% | 90% | 80% | 90% | 90% | 90% | 90% | 90% | 90% | 90% | 90% | 90% | 80% | 90% | 90% | 90% | 90% | 90% | Post-emergence action against DIGSA in % ([1]; 80 g/ha): 90%; Post-emergence action against ABUTH in % ([2]; 80 g/ha): 80%; Post-emergence action against ZEAMX in % (crop plant compatibility) (Zea mays (ZEAMX)): 0%; Post-emergence action against ZEAMX in % (Zea mays (ZEAMX)): 0%; Post-emergence action against POLCO in % ([3]; dosage 80 g/ha): 90%; Post-emergence action against AVEFA in % (Avena fatua (AVEFA); 80 g/ha): 90%; Post-emergence action against ECHCG in % ([5]; dosage 80 g/ha): 90%; Post-emergence action against MATIN in % ([7]; dosage 80 g/ha): 80%; Post-emergence action against AMARE in % [9, 11]: 90%
O=C(COc1nn(-c2ncccc2F)c(-c2ccc(F)nc2)c1C1CC1)OCC(F)(F)F [Example I-326] | 90% | 80% | 0% | 90% | 90% | 90% | 90% | 90% | 90% | 90% | 80% | 90% | 90% | 90% | 80% | 90% | 90% | 90% | 90% | 90% | Post-emergence action against DIGSA in % ([1]; 80 g/ha): 80%; Post-emergence action against ABUTH in % ([2]; 80 g/ha): 80%; Post-emergence action against ZEAMX in % (crop plant compatibility) (Zea mays (ZEAMX)): 0%; Post-emergence action against ZEAMX in % (Zea mays (ZEAMX)): 0%; Post-emergence action against POLCO in % ([3]; dosage 80 g/ha): 80%; Post-emergence action against AVEFA in % (Avena fatua (AVEFA); 80 g/ha): 90%; Post-emergence action against ECHCG in % ([5]; dosage 80 g/ha): 90%; Post-emergence action against AMARE in % [9, 11]: 90%
CCCOC(=O)COc1nn(-c2ncccc2F)c(-c2ccc(F)nc2)c1C1CC1 [Example I-344] | 90% | 80% | 0% | 90% | 80% | 80% | 90% | 90% | 90% | 90% | 90% | 90% | 90% | 90% | 80% | 90% | 90% | 90% | 90% | 90% | Post-emergence action against DIGSA in % ([1]; 80 g/ha): 90%; Post-emergence action against ABUTH in % ([2]; 80 g/ha): 80%; Post-emergence action against ZEAMX in % (crop plant compatibility) (Zea mays (ZEAMX)): 0%; Post-emergence action against ZEAMX in % (Zea mays (ZEAMX)): 0%; Post-emergence action against ORYSA in % (Oryza sativa (ORYSA); [13]): 0%; Post-emergence action against POLCO in % ([3]; dosage 80 g/ha): 80%; Post-emergence action against AVEFA in % (Avena fatua (AVEFA); 80 g/ha): 90%; Post-emergence action against ECHCG in % ([5]; dosage 80 g/ha): 90%; Post-emergence action against MATIN in % ([7]; dosage 80 g/ha): 80%; Post-emergence action against AMARE in % [9, 11]: 90%
